Test results reported in PMC3832412 (PLoS ONE, 2013).
Where “and” joins values, the source holds several entries; their conditions need not be identical. Equal values may be shown once. Read-outs that look alike come from different tables or passages of the source.

Tests used:
[1] = tested on: NMDAR in primary rat hippocampal neurons; format: cell-based, rat (Sprague-Dawley)
GluN2A subunit = settings: ref [41], cited from earlier work

Q: For `CC(C(O)c1ccc(O)cc1)N1CCC(Cc2ccccc2)CC1` (stereo not shown) [ifenprodil], which “inhibition of iCa^2+ influx” value [1] is on record?
A: 64%

Q: For `C[C@H](NC(c1cccc2[nH]c(=O)c(=O)[nH]c12)P(=O)(O)O)c1ccc(Br)cc1` (stereo partly shown) [NVP-AAM007], which “inhibition of iCa^2+ influx” value [1] is on record?
A: 46% and 64%

Q: What about the NMDAR subunit specificity (GluN2A subunit; 60 nM) of the same compound?
A: specifically inhibits the GluN2A subunit

Q: What about the NMDAR subunit specificity (GluN2A subunit; 400 nM) of the same compound?
A: non-subunit specific
